One experiment relates to PC3 (prostate cell line). In words: Cytotoxicity assay (propidium iodide assay), PC3. Format: cell-based. Particulars: Homo sapiens, PC-3, PC3 cells, 48 h treatment. How it is done:
(§1) The assay was designed as in the reference, Anticancer Drugs, 2002, 13, 1-8, the disclosure of which is incorporated by reference for the teaching of the assay.
(§2) Cells from cell lines A2780 (ovarian cell line) and PC3 (prostate cell line) (both from ATCC) were seeded at a density of 3000 cells/well in a white opaque 96-well plate. Following incubation at 37° C./5% CO2 for a period of 18-24 h, the cells were treated with various concentrations (stock solution was prepared in DMSO and subsequent dilutions were made in media as per ATCC guidelines) of the test compounds for a period of 48 h. At the end of treatment, the culture medium was discarded, the cells were washed with 1×PBS and 200 μl of 7 μg/ml propidium iodide was added to each well. The plates were frozen at −70° C. overnight. For analysis, the plates were warmed to RT, allowed to thaw and were read in PoleStar fluorimeter with the fluorescence setting. The percentage of viable cells in the non-treated set of wells was considered to be 100 and the percentage viability following treatment was calculated accordingly. IC50 values were calculated from graphs plotted using these percentages.

The test system of experiment [1] is A2780 (ovarian cell line). In words: Cytotoxicity assay (propidium iodide assay), A2780. Format: cell-based. Particulars: Homo sapiens, A2780 cells, 48 h treatment. How it is done: as §1, §2

A word on the inhibition: it is the percentage by which the read-out fell short of the control. Consider `COc1cc(-c2ccc3ncc4c(c3c2)n(-c2ccc(C(C)(C)C#N)cc2)c(=NC#N)n4C)cc(OC)c1OC` [Example 88, N-(1-(4-(2-cyanopropan-2-yl)phenyl)-3-methyl-8-(3,4,5-trimethoxyphenyl)-1H-imidazo[4,5-c]quinolin-2(3H)-ylidene)cyanamide], for which the inhibition at 1 µM with PC3 (prostate cell line) is 30 to 70%; in experiment [1], at least 70%.
Consider `COc1ccc(-n2c(=NC#N)n(C)c3cnc4ccc(-c5cccc(Cl)c5)cc4c32)cn1` [Example 28, N-(8-(3-chlorophenyl)-1-(6-methoxypyridin-3-yl)-3-methyl-1H-imidazo[4,5-c]quinolin-2(3H)-ylidene)cyanamide], for which the inhibition at 1 µM was under 30% in the experiment with PC3 (prostate cell line) and 30 to 70% in experiment [1].
For the compound `COc1ccc(-n2c(=NC#N)n(C)c3cnc4ccc(-c5ccncc5)cc4c32)cn1` [Example 14, N-(1-(6-methoxypyridin-3-yl)-3-methyl-8-(pyridin-4-yl)-1H-imidazo[4,5-c]quinolin-2(3H)-ylidene)cyanamide], the inhibition at 1 µM in the experiment with PC3 (prostate cell line) was 30 to 70%; in experiment [1] it was at least 70%.
Broadly, the IC50 is the concentration that gives 50% inhibition. Consider `COc1ccc(-n2c(=NC#N)n(C)c3cnc4ccc(-c5cnc(N)c(C(F)(F)F)c5)cc4c32)cn1` [Example 1, N-(8-(6-amino-5-(trifluoromethyl)pyridin-3-yl)-1-(6-methoxypyridin-3-yl)-3-methyl-1H-imidazo[4,5-c]quinolin-2(3H)-ylidene)cyanamide], for which the IC50 (with PC3 (prostate cell line); in experiment [1]) was at most 0.5 µM throughout.
`Cn1c(=NC#N)n(-c2ccc(C(C)(C)C#N)nc2)c2c3cc(-c4ccncc4)ccc3ncc21` [Example 81, N-(1-(6-(2-cyanopropan-2-yl)pyridin-3-yl)-3-methyl-8-(pyridin-4-yl)-1H-imidazo[4,5-c]quinolin-2(3H)-ylidene)cyanamide]: the IC50 (in the experiment with PC3 (prostate cell line); in experiment [1]) was at most 0.5 µM throughout.
For the compound `COc1ccc(-n2c(=NC#N)n(C)c3cnc4ccc(-c5ccccc5OC(C)C)cc4c32)cn1` [Example 27, N-(8-(2-isopropoxyphenyl)-1-(6-methoxypyridin-3-yl)-3-methyl-1H-imidazo[4,5-c]quinolin-2(3H)-ylidene)cyanamide], the inhibition at 1 µM (with PC3 (prostate cell line); in experiment [1]) was under 30% throughout.
With `COc1ncc(-c2ccc3ncc4c(c3c2)n(-c2ccc(C(C)(C)C#N)cc2)c(=NC#N)n4C)cc1NS(=O)(=O)c1ccccc1` [Example 124, N-(5-(2-(cyanoimino)-1-(4-(2-cyanopropan-2-yl)phenyl)-3-methyl-2,3-dihydro-1H-imidazo[4,5-c]quinolin-8-yl)-2-methoxypyridin-3-yl)benzenesulfonamide], the inhibition at 1 µM (with PC3 (prostate cell line); in experiment [1]) was at least 70% throughout.
In the case of `COc1ccc(-n2c(=NC#N)n(C)c3cnc4ccc(-c5cccc(O)c5)cc4c32)cn1` [Example 38, N-(8-(3-hydroxyphenyl)-1-(6-methoxypyridin-3-yl)-3-methyl-1H-imidazo[4,5-c]quinolin-2(3H)-ylidene)cyanamide], the inhibition at 1 µM in the experiment on PC3 (prostate cell line) is 30 to 70%; in experiment [1], at least 70%.
On the same counts, the results for `COc1ccc(-n2c(=NC#N)n(C)c3cnc4ccc(-c5cccnc5C)cc4c32)cn1` [Example 45, N-(1-(6-methoxypyridin-3-yl)-3-methyl-8-(2-methylpyridin-3-yl)-1H-imidazo[4,5-c]quinolin-2(3H)-ylidene)cyanamide] are under 30% and 30 to 70%.
As to `COc1ccc(-n2c(=NC#N)n(C)c3cnc4ccc(-c5cnc(N)c(C(F)(F)F)c5)cc4c32)c(OC)n1` [Example 98, N-(8-(6-amino-5-(trifluoromethyl)pyridin-3-yl)-1-(2,6-dimethoxypyridin-3-yl)-3-methyl-1H-imidazo[4,5-c]quinolin-2(3H)-ylidene)cyanamide], the inhibition at 1 µM (in the experiment with PC3 (prostate cell line); in experiment [1]) was at least 70% throughout.
In the case of `Cc1cc(-c2ccc3ncc4c(c3c2)n(-c2ccc(C(C)(C)C#N)nc2)c(=NC#N)n4C)cnc1N1CCN(C(=O)OC(C)(C)C)CC1` [Example 119, tert-butyl 4-(5-(2-(cyanoimino)-1-(6-(2-cyanopropan-2-yl)pyridin-3-yl)-3-methyl-2,3-dihydro-1H-imidazo[4,5-c]quinolin-8-yl)-3-methylpyridin-2-yl)piperazine-1-carboxylate], the inhibition at 1 µM (in the experiment on PC3 (prostate cell line); in experiment [1]) was at least 70% throughout.
For the compound `COc1ccc(-n2c(=NC#N)n(C)c3cnc4ccc(-c5ccc(C#N)cc5)cc4c32)cn1` [Example 30, N-(8-(4-cyanophenyl)-1-(6-methoxypyridin-3-yl)-3-methyl-1H-imidazo[4,5-c]quinolin-2(3H)-ylidene)cyanamide], the inhibition at 1 µM (in the experiment with PC3 (prostate cell line); in experiment [1]) was under 30% each time.
For the compound `COc1cc(-c2ccc3ncc4c(c3c2)n(-c2ccc(C(C)(C)C#N)nc2)c(=NC#N)n4C)cc(OC)c1OC` [Example 57, N-(1-(6-(2-cyanopropan-2-yl)pyridin-3-yl)-3-methyl-8-(3,4,5-trimethoxyphenyl)-1H-imidazo[4,5-c]quinolin-2(3H)-ylidene)cyanamide], the inhibition at 1 µM with PC3 (prostate cell line) is 30 to 70%; in experiment [1], at least 70%.
Take `COc1ccc(-n2c(=NC#N)n(C)c3cnc4ccc(-c5cnc(N)c(C(F)(F)F)c5)cc4c32)c(C)n1` [Example 9, N-(8-(6-amino-5-(trifluoromethyl)pyridin-3-yl)-1-(6-methoxy-2-methylpyridin-3-yl)-3-methyl-1H-imidazo[4,5-c]quinolin-2(3H)-ylidene)cyanamide]: the half-inhibitory concentration (IC50) (in the experiment with PC3 (prostate cell line); in experiment [1]) was at most 0.5 µM in each case.
As for `CC(C)(C#N)c1ccc(-n2c(=NC#N)[nH]c3cnc4ccc(-c5cccnc5)cc4c32)cc1` [Example 85, N-(1-(4-(2-cyanopropan-2-yl)phenyl)-8-(pyridin-3-yl)-1H-imidazo[4,5-c]quinolin-2(3H)-ylidene)cyanamide], the inhibition at 1 µM (in the experiment on PC3 (prostate cell line); in experiment [1]) was under 30% each time.
For `Cn1c(=NC#N)n(-c2ccc(C(C)(C)C#N)nc2)c2c3cc(-c4cncc(CNC(=O)OC(C)(C)C)c4)ccc3ncc21` [Example 71, tert-butyl (5-(2-(cyanoimino)-1-(6-(2-cyanopropan-2-yl)pyridin-3-yl)-3-methyl-2,3-dihydro-1H-imidazo[4,5-c]quinolin-8-yl)pyridin-3-yl)methylcarbamate], the inhibition at 1 µM (in the experiment on PC3 (prostate cell line); in experiment [1]) was under 30% in each case.
In the case of `COc1ccc(-n2c(=NC#N)n(C)c3cnc4ccc(-c5ccccc5C)cc4c32)cn1` [Example 34, N-(1-(6-methoxypyridin-3-yl)-3-methyl-8-o-tolyl-1H-imidazo[4,5-c]quinolin-2(3H)-ylidene)cyanamide], the inhibition at 1 µM (in the experiment with PC3 (prostate cell line); in experiment [1]) was under 30% each time.
For `Cn1c(=NC#N)n(-c2ccc(C(C)(C)C#N)cc2)c2c3cc(-c4ccc(N5CCOCC5)nc4)ccc3ncc21` [Example 90, N-(1-(4-(2-cyanopropan-2-yl)phenyl)-3-methyl-8-(6-morpholinopyridin-3-yl)-1H-imidazo[4,5-c]quinolin-2(3H)-ylidene)cyanamide], the values for the inhibition at 1 µM (with PC3 (prostate cell line); in experiment [1]) were 30 to 70% and at least 70%, respectively.
Regarding `COc1ccc(-n2c(=NC#N)n(C)c3cnc4ccc(-c5ccc(N(C)C)nc5)cc4c32)cn1` [Example 2, N-(8-(6-(dimethylamino)pyridin-3-yl)-1-(6-methoxypyridin-3-yl)-3-methyl-1H-imidazo[4,5-c]quinolin-2(3H)-ylidene)cyanamide], the IC50 (in the experiment with PC3 (prostate cell line); in experiment [1]) was at most 0.5 µM in each case.

For the origin of these results see patent US9062046B2, “Substituted imidazoquinoline derivatives as kinase inhibitors” (Piramal Enterprises Limited, priority 2011, dated 2015).
